Test results reported in the NIST ThermoML archive (doi:10.1016/j.fluid.2005.07.017).

Test: xn = mol fraction of the nth substance listed
Details: Liquid, Vibrating tube method

c1ccsc1 [thiophene] + O=C=O
Details | mass density [kg/m3]
322.95 K, 19000 kPa, x2 = 0.199 | 1032.53
322.96 K, 8142 kPa, x2 = 0.5661 | 964.89
322.96 K, 9024 kPa, x2 = 0.5661 | 967.04
322.96 K, 10004 kPa, x2 = 0.5661 | 969.41
322.96 K, 11043 kPa, x2 = 0.5661 | 971.85
322.96 K, 12049 kPa, x2 = 0.5661 | 974.11
322.96 K, 13009 kPa, x2 = 0.5661 | 976.27
322.96 K, 14014 kPa, x2 = 0.5661 | 978.41
322.96 K, 15031 kPa, x2 = 0.5661 | 980.61
322.96 K, 16040 kPa, x2 = 0.5661 | 982.75
322.96 K, 17014 kPa, x2 = 0.5661 | 984.76
322.96 K, 18012 kPa, x2 = 0.5661 | 986.77
322.96 K, 19036 kPa, x2 = 0.5661 | 988.76
323.01 K, 1047 kPa, x2 = 0 | 1028.97
323.01 K, 2059 kPa, x2 = 0 | 1029.98
323.01 K, 3070 kPa, x2 = 0 | 1031.02
323.01 K, 4047 kPa, x2 = 0 | 1031.99
323.01 K, 5002 kPa, x2 = 0 | 1032.9
323.01 K, 6005 kPa, x2 = 0 | 1033.9
323.01 K, 7068 kPa, x2 = 0 | 1034.92
323.01 K, 8021 kPa, x2 = 0 | 1035.81
323.01 K, 9013 kPa, x2 = 0 | 1036.76
323.01 K, 10005 kPa, x2 = 0 | 1037.67
323.01 K, 10991 kPa, x2 = 0 | 1038.62
323.01 K, 12034 kPa, x2 = 0 | 1039.58
323.01 K, 12977 kPa, x2 = 0 | 1040.44
323.01 K, 13999 kPa, x2 = 0 | 1041.38
323.01 K, 14991 kPa, x2 = 0 | 1042.26
323.01 K, 15995 kPa, x2 = 0 | 1043.17
323.01 K, 16998 kPa, x2 = 0 | 1044.03
323.01 K, 17983 kPa, x2 = 0 | 1044.93
323.01 K, 18951 kPa, x2 = 0 | 1045.78
323.06 K, 10088 kPa, x2 = 0.9217 | 726.5
323.06 K, 11019 kPa, x2 = 0.9217 | 748.28
323.06 K, 12026 kPa, x2 = 0.9217 | 766.89
323.06 K, 13007 kPa, x2 = 0.9217 | 781.83
323.06 K, 14004 kPa, x2 = 0.9217 | 794.96
323.06 K, 15030 kPa, x2 = 0.9217 | 806.9
323.06 K, 16054 kPa, x2 = 0.9217 | 817.45
323.06 K, 17033 kPa, x2 = 0.9217 | 826.57
323.06 K, 18006 kPa, x2 = 0.9217 | 835.18
323.06 K, 19038 kPa, x2 = 0.9217 | 843.46
323.06 K, 20051 kPa, x2 = 0.9217 | 850.95
323.06 K, 21005 kPa, x2 = 0.9217 | 857.68
323.06 K, 22019 kPa, x2 = 0.9217 | 864.36
323.06 K, 23033 kPa, x2 = 0.9217 | 870.67
323.06 K, 24027 kPa, x2 = 0.9217 | 876.59
323.06 K, 24980 kPa, x2 = 0.9217 | 882.14
323.08 K, 6997 kPa, x2 = 0.3818 | 994.07
323.08 K, 8053 kPa, x2 = 0.3818 | 995.85
323.08 K, 9009 kPa, x2 = 0.3818 | 997.45
323.08 K, 10081 kPa, x2 = 0.3818 | 999.25
323.08 K, 11041 kPa, x2 = 0.3818 | 1000.81
323.08 K, 12024 kPa, x2 = 0.3818 | 1002.4
323.08 K, 12998 kPa, x2 = 0.3818 | 1003.93
323.08 K, 14011 kPa, x2 = 0.3818 | 1005.51
323.08 K, 15018 kPa, x2 = 0.3818 | 1007.08
323.08 K, 15936 kPa, x2 = 0.3818 | 1008.44
323.08 K, 17059 kPa, x2 = 0.3818 | 1010.13
323.08 K, 17995 kPa, x2 = 0.3818 | 1011.52
323.08 K, 19010 kPa, x2 = 0.3818 | 1013.01
323.09 K, 8069 kPa, x2 = 0.6996 | 950.76
323.09 K, 9063 kPa, x2 = 0.6996 | 953.71
323.09 K, 10074 kPa, x2 = 0.6996 | 956.72
323.09 K, 11045 kPa, x2 = 0.6996 | 959.45
323.09 K, 11999 kPa, x2 = 0.6996 | 962.01
323.09 K, 13038 kPa, x2 = 0.6996 | 964.85
323.09 K, 14005 kPa, x2 = 0.6996 | 967.35
323.09 K, 14998 kPa, x2 = 0.6996 | 969.82
323.09 K, 16004 kPa, x2 = 0.6996 | 972.38
323.09 K, 17044 kPa, x2 = 0.6996 | 974.92
323.09 K, 17927 kPa, x2 = 0.6996 | 976.97
323.15 K, 101 kPa, x2 = 0 | 1026.98
332.79 K, 7987 kPa, x2 = 0.5661 | 943.05
332.79 K, 9035 kPa, x2 = 0.5661 | 945.99
332.79 K, 10035 kPa, x2 = 0.5661 | 948.77
332.79 K, 11015 kPa, x2 = 0.5661 | 951.37
332.79 K, 12021 kPa, x2 = 0.5661 | 953.97
332.79 K, 13022 kPa, x2 = 0.5661 | 956.49
332.79 K, 14010 kPa, x2 = 0.5661 | 958.85
332.79 K, 15020 kPa, x2 = 0.5661 | 961.27
332.79 K, 16037 kPa, x2 = 0.5661 | 963.66
332.79 K, 17014 kPa, x2 = 0.5661 | 965.85
332.79 K, 18001 kPa, x2 = 0.5661 | 968.08
332.79 K, 19018 kPa, x2 = 0.5661 | 970.3
332.85 K, 1015 kPa, x2 = 0 | 1016.93
332.85 K, 2035 kPa, x2 = 0 | 1018
332.85 K, 3004 kPa, x2 = 0 | 1019.06
332.85 K, 3964 kPa, x2 = 0 | 1020.05
332.85 K, 4991 kPa, x2 = 0 | 1021.14
332.85 K, 5081 kPa, x2 = 0.199 | 1002.75
332.85 K, 6001 kPa, x2 = 0 | 1022.17
332.85 K, 6051 kPa, x2 = 0.199 | 1004.04
332.85 K, 7014 kPa, x2 = 0 | 1023.21
332.85 K, 7075 kPa, x2 = 0.199 | 1005.38
332.85 K, 7998 kPa, x2 = 0 | 1024.2
332.85 K, 8033 kPa, x2 = 0.199 | 1006.63
332.85 K, 9006 kPa, x2 = 0.199 | 1007.88
332.85 K, 9009 kPa, x2 = 0 | 1025.23
332.85 K, 9995 kPa, x2 = 0 | 1026.19
332.85 K, 10006 kPa, x2 = 0.199 | 1009.13
332.85 K, 10989 kPa, x2 = 0 | 1027.18
332.85 K, 11013 kPa, x2 = 0.199 | 1010.42
332.85 K, 12006 kPa, x2 = 0 | 1028.17
332.85 K, 12053 kPa, x2 = 0.199 | 1011.71
332.85 K, 13009 kPa, x2 = 0 | 1029.18
